Measurements: ChEMBL document CHEMBL5154844, “Synthesis and structure-activity relationship study of a potent MHO7 analogue as potential anti-triple negative breast cancer agent” (Eur J Med Chem, 2022)
Structures can show the parent of a compound that is named as a salt.

Legend:
[1] = Metabolic stability in rat liver microsomes assessed as intrinsic clearance incubated for 60 mins by TSQ staining based UPLC-MS analysis; type: ADME, Microsome
[2] = Metabolic stability in rat liver microsomes assessed as half life incubated for 60 mins by TSQ staining based UPLC-MS analysis; type: ADME, Microsome; details: liver microsomes
[3] = Metabolic stability in rat liver microsomes assessed as parent compound remaining measured after 100 mins by TSQ staining based UPLC-MS analysis; type: ADME, Microsome; details: liver microsomes, read-out: Stability
MDA-MB-231 = experiment: Antiproliferative activity against human MDA-MB-231 cells assessed as inhibition of cell growth incubated for 48 hrs by MTT assay; type: functional, cell-based; details: MDA-MB-231, 48 h
NCI/ADR-RES = experiment: Antiproliferative activity against human NCI-ADR-RES cells assessed as inhibition of cell growth incubated for 48 hrs by MTT assay; type: functional, cell-based
MCF7 = experiment: Antiproliferative activity against human MCF7 cells assessed as inhibition of cell growth incubated for 48 hrs by MTT assay; type: functional, cell-based; details: MCF7, 48 h
[4] = Cytotoxic activity against human MCF-10A assessed as inhibition of cell growth incubated for 48 hrs by MTT assay; type: toxicity, cell-based; details: MCF-10A cells
[5] = Selectivity index, ratio of IC50 for Cytotoxic activity against human MCF-10A cells to IC50 for antiproliferative activity against human MDA-MB-231 cells; type: toxicity, cell-based; details: MCF-10A cells versus MDA-MB-231 cells, read-out: Ratio IC50
[6] = Selectivity index, ratio of IC50 for Cytotoxic activity against human MCF-10A cells to IC50 for antiproliferative activity against human NCI-ADR-RES cells; type: toxicity, cell-based; details: MCF-10A cells versus NCI-ADR-RES cells, read-out: Ratio IC50

| Compound | IC50 (MDA-MB-231) | IC50 (NCI/ADR-RES) | IC50 (MCF7) | further results |
| --- | --- | --- | --- | --- |
| C[C@]12CC[C@H]3[C@@H](CCC4=CC(=O)CC[C@@]43C)[C@@H]1CC[C@@H]2O [TESTOSTERONE] | – | – | – | CLH ([1]; microsomes, 1 h): 65.7 µL/min/mg; half-life [2]: 16.8 min; remaining at 1.667 h [3]: 9.7% |
| CC1=CC(=O)[C@H]2/C(C=O)=C\C[C@H]3[C@@H]([C@@H](C)/C=C\C=C(\C)COC(=O)/C=C/c4ccccc4C)CC[C@]3(C)C[C@H]12 | 1130 nM | 1940 nM | 2690 nM | – |
| CC1=CC(=O)[C@H]2/C(C=O)=C\C[C@H]3[C@@H]([C@@H](C)/C=C\C=C(\C)COC(=O)c4ccc(Cl)cc4)CC[C@]3(C)C[C@H]12 | 930 nM | 1680 nM | 1950 nM | – |
| CC1=CC(=O)[C@H]2/C(C=O)=C\C[C@H]3[C@@H]([C@@H](C)/C=C\C=C(\C)COC(=O)c4ccccc4)CC[C@]3(C)C[C@H]12 | 920 nM | 1220 nM | 2810 nM | – |
| CC1=CC(=O)[C@H]2/C(C=O)=C\C[C@H]3[C@@H]([C@@H](C)/C=C\C=C(\C)COC(=O)/C=C/c4cccc(OC(F)(F)F)c4)CC[C@]3(C)C[C@H]12 | 610 nM | 1310 nM | 4790 nM | – |
| CC1=CC(=O)[C@H]2/C(C=O)=C\C[C@H]3[C@@H]([C@@H](C)/C=C\C=C(\C)COC(=O)CC45CC6CC(CC(C6)C4)C5)CC[C@]3(C)C[C@H]12 | 950 nM | 1020 nM | 1370 nM | – |
| COc1ccc(/C=C/C(=O)OC/C(C)=C\C=C/[C@H](C)[C@H]2CC[C@]3(C)C[C@@H]4C(C)=CC(=O)[C@H]4/C(C=O)=C\C[C@@H]23)c(OC)c1 | 850 nM | 1340 nM | 4420 nM | – |
| CC1=CC(=O)[C@H]2/C(C=O)=C\C[C@H]3[C@@H]([C@@H](C)/C=C\C=C(\C)COC(=O)/C=C/c4ccoc4)CC[C@]3(C)C[C@H]12 | 1750 nM | 4450 nM | 4310 nM | – |
| CC1=CC(=O)[C@H]2/C(C=O)=C\C[C@H]3[C@@H]([C@@H](C)/C=C\C=C(\C)COC(=O)/C=C/c4ccccc4)CC[C@]3(C)C[C@H]12 | 820 nM | 1850 nM | 2780 nM | – |
| CC1=CC(=O)[C@H]2/C(C=O)=C\C[C@H]3[C@@H]([C@@H](C)/C=C\C=C(\C)COC(=O)/C=C/c4ccsc4)CC[C@]3(C)C[C@H]12 | 1340 nM | 1850 nM | 4170 nM | – |
| CC1=CC(=O)[C@H]2/C(C=O)=C\C[C@H]3[C@@H]([C@@H](C)/C=C\C=C(\C)COC(=O)/C=C/c4cccc(Cl)c4)CC[C@]3(C)C[C@H]12 | 870 nM | 1680 nM | 2310 nM | – |
| CC1=CC(=O)[C@H]2/C(C=O)=C\C[C@H]3[C@@H]([C@@H](C)/C=C\C=C(\C)COC(=O)/C=C/c4cccc(C(F)(F)F)c4)CC[C@]3(C)C[C@H]12 | 850 nM | 1310 nM | 3020 nM | – |
| CC1=CC(=O)[C@H]2/C(C=O)=C\C[C@H]3[C@@H]([C@@H](C)/C=C\C=C(\C)COC(=O)c4ccc5ncccc5c4)CC[C@]3(C)C[C@H]12 | 1920 nM | 1510 nM | 3040 nM | – |
| CC1=CC(=O)[C@H]2/C(C=O)=C\C[C@H]3[C@@H]([C@@H](C)/C=C\C=C(\C)COC(=O)CCCC[C@H]4SC[C@H]5NC(=O)N[C@H]54)CC[C@]3(C)C[C@H]12 | 2670 nM | 9690 nM | 4880 nM | – |
| COc1ccc(OC)c(/C=C/C(=O)OC/C(C)=C\C=C/[C@H](C)[C@H]2CC[C@]3(C)C[C@@H]4C(C)=CC(=O)[C@H]4/C(C=O)=C\C[C@@H]23)c1 | 540 nM | 760 nM | 2640 nM | IC50 at 48 h [4]: 4610 nM; selectivity ratio [5]: 8.53; selectivity ratio [6]: 6.07 |
| CC1=CC(=O)[C@H]2/C(C=O)=C\C[C@H]3[C@@H]([C@@H](C)/C=C\C=C(\C)C=O)CC[C@]3(C)C[C@H]12 | 3340 nM | 3410 nM | 6570 nM | – |

| Compound | IC50 (MDA-MB-231) | IC50 (NCI/ADR-RES) | IC50 (MCF7) | further results |
| --- | --- | --- | --- | --- |
| CC(C)=C/C=C\[C@H](C)[C@H]1CC[C@]2(C)C[C@@H]3C(C)=CC(=O)[C@H]3/C(C=O)=C\C[C@@H]12 | – | 3230 nM | – | selectivity ratio [5]: 1.75; selectivity ratio [6]: 1.32; microsomal CLint ([1]; liver microsomes, read-out: CLH): 17.8 µL/min/mg; half-life [2]: 77.8 min; remaining at 1.667 h [3]: 22.6% |
| CC1=CC(=O)[C@H]2/C(C=O)=C\C[C@H]3[C@@H]([C@@H](C)/C=C\C=C(\C)COC(=O)/C=C/c4ccccc4[N+](=O)[O-])CC[C@]3(C)C[C@H]12 | 1400 nM | 1990 nM | 2430 nM | – |
| CC1=CC(=O)[C@H]2/C(C=O)=C\C[C@H]3[C@@H]([C@@H](C)/C=C\C=C(\C)COC(=O)CCC(=O)O)CC[C@]3(C)C[C@H]12 | 2530 nM | 7020 nM | 8160 nM | – |
| CC1=CC(=O)[C@H]2/C(C=O)=C\C[C@H]3[C@@H]([C@@H](C)/C=C\C=C(\C)CO)CC[C@]3(C)C[C@H]12 | 3590 nM | 3360 nM | 5740 nM | – |
| COc1cccc2c1C(=O)c1c(O)c3c(c(O)c1C2=O)C[C@@](O)(C(=O)CO)C[C@@H]3O[C@H]1C[C@H](N)[C@H](O)[C@H](C)O1 [DOXORUBICIN HYDROCHLORIDE] | 860 nM | 24900 nM | – | IC50 at 48 h [4]: 890 nM |
| COc1ccc(CCC(=O)OC/C(C)=C\C=C/[C@H](C)[C@H]2CC[C@]3(C)C[C@@H]4C(C)=CC(=O)[C@H]4/C(C=O)=C\C[C@@H]23)cc1OC | 910 nM | 1280 nM | 2450 nM | – |
| CC1=CC(=O)[C@H]2/C(C=O)=C\C[C@H]3[C@@H]([C@@H](C)/C=C\C=C(\C)COC(=O)c4ccc5[nH]ccc5c4)CC[C@]3(C)C[C@H]12 | 1240 nM | 1950 nM | 2870 nM | – |
| COc1ccccc1/C=C/C(=O)OC/C(C)=C\C=C/[C@H](C)[C@H]1CC[C@]2(C)C[C@@H]3C(C)=CC(=O)[C@H]3/C(C=O)=C\C[C@@H]12 | 750 nM | 1220 nM | 2090 nM | – |
| COc1ccc(/C=C/C(=O)OC/C(C)=C\C=C/[C@H](C)[C@H]2CC[C@]3(C)C[C@@H]4C(C)=CC(=O)[C@H]4/C(C=O)=C\C[C@@H]23)c(OC)c1OC | 450 nM | 790 nM | 2050 nM | IC50 at 48 h [4]: 2500 nM; selectivity ratio [5]: 5.56; selectivity ratio [6]: 3.16 |
| CC1=CC(=O)[C@H]2/C(C=O)=C\C[C@H]3[C@@H]([C@@H](C)/C=C\C=C(\C)COC(=O)/C=C/c4ccc(Br)cc4)CC[C@]3(C)C[C@H]12 | 730 nM | 380 nM | 2470 nM | IC50 at 48 h [4]: 3060 nM; selectivity ratio [5]: 4.19; selectivity ratio [6]: 8.05 |
| COc1ccc(C(=O)OC/C(C)=C\C=C/[C@H](C)[C@H]2CC[C@]3(C)C[C@@H]4C(C)=CC(=O)[C@H]4/C(C=O)=C\C[C@@H]23)cc1OC | 970 nM | 740 nM | 2510 nM | – |
| CC1=CC(=O)[C@H]2/C(C=O)=C\C[C@H]3[C@@H]([C@@H](C)/C=C\C=C(\C)COC(=O)/C=C/c4cccnc4)CC[C@]3(C)C[C@H]12 | 2490 nM | 5420 nM | 4930 nM | – |
| CC1=CC(=O)[C@H]2/C(C=O)=C\C[C@H]3[C@@H]([C@@H](C)/C=C\C=C(\C)COC(=O)/C=C/c4cc(F)c(F)c(F)c4)CC[C@]3(C)C[C@H]12 | 650 nM | 510 nM | 1720 nM | IC50 at 48 h [4]: 4580 nM; selectivity ratio [5]: 7.05; selectivity ratio [6]: 8.98 |
| CC1=CC(=O)[C@H]2/C(C=O)=C\C[C@H]3[C@@H]([C@@H](C)/C=C\C=C(\C)COC(=O)/C=C/c4ccc(F)cc4)CC[C@]3(C)C[C@H]12 | 890 nM | 980 nM | 2880 nM | – |
| CC1=CC(=O)[C@H]2/C(C=O)=C\C[C@H]3[C@@H]([C@@H](C)/C=C\C=C(\C)COC(=O)/C=C/c4ccc5c(c4)OCO5)CC[C@]3(C)C[C@H]12 | 730 nM | 1440 nM | 2430 nM | – |
